The target of one data set is T1, Cytochrome P450 1A2 (Homo sapiens, UniProt P05177).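 Further: PubChem cytochrome P450 panel assay, CYP1A2 panel member.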
T1 sequence (P05177 whole entry): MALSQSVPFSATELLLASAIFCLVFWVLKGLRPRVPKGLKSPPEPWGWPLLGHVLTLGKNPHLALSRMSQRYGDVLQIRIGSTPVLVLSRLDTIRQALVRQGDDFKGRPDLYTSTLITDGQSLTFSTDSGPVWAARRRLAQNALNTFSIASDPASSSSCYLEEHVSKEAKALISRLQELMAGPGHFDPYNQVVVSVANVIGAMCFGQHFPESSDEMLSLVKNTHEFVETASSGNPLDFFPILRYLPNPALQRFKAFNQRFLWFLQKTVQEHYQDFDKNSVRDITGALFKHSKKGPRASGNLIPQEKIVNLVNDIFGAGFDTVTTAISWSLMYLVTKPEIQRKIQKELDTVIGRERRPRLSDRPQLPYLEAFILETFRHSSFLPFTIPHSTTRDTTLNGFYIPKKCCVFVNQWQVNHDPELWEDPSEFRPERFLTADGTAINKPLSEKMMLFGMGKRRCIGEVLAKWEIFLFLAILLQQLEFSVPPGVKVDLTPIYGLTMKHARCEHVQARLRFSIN

In the next data set the target is Cytochrome P450 2C9 (Homo sapiens, UniProt P11712).
Sequence of Cytochrome P450 2C9 (P11712 whole entry): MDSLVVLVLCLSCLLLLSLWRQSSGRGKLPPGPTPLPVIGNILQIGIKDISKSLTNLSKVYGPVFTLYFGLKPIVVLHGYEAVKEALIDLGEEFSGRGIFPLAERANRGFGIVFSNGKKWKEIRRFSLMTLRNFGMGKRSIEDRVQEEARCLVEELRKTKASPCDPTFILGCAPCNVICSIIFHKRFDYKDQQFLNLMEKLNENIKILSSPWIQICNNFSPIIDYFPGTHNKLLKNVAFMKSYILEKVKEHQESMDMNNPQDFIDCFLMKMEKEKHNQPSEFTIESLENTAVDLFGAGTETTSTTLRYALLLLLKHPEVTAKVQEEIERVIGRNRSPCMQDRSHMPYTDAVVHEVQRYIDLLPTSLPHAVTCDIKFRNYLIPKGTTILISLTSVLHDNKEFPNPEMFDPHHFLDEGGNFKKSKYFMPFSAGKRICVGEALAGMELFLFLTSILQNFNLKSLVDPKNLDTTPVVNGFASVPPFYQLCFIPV
Data set [1] concerns the target T2, Heat shock factor protein 1 (Mus musculus, UniProt P38532).
T2 sequence (P38532 whole entry): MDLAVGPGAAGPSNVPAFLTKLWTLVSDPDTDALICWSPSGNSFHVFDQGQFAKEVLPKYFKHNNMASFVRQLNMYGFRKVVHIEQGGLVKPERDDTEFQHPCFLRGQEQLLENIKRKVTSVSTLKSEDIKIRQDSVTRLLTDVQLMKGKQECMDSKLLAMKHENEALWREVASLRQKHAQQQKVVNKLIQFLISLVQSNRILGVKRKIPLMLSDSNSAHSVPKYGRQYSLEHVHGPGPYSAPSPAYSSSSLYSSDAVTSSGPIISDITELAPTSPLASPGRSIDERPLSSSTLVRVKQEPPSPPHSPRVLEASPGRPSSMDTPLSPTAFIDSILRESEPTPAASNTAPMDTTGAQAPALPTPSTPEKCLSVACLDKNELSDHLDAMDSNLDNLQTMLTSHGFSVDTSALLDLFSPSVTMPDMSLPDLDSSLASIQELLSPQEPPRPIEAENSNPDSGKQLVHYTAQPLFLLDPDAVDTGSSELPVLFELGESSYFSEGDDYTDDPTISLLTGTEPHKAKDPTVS
As to the kind of experiment: decrease of HSF1-responsive luciferase luminescence – cell-based, NIH3T3, dose retest, confirmation (AID 2382).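 Further: NIH3T3 fibroblasts with HSF1-driven luciferase reporter stressed by proteasome inhibitor MG132; luminescence from HSF1-driven luciferase expression after 8 hours of MG132 stress.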 The data set is classed as functional.

Another data set has as its system INS1. The data set can be described thus: INS-1E survival protection against cytokine death – cell-based, luminescence, retest, dose response (AID 449756).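 Further: cell death triggered by IL-1 beta plus TNF-alpha plus IFN-gamma mixture; protective hits raise ATP signal compared with cytokine alone wells.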 The data set is classed as functional. The conditions noted are these: Rattus norvegicus.
For the next data set, the target named is Cytochrome P450 3A4 (Homo sapiens, UniProt P08684).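 Further: CYP3A4 tested as one member of a cytochrome P450 panel screen.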
Sequence of Cytochrome P450 3A4 (P08684 whole entry): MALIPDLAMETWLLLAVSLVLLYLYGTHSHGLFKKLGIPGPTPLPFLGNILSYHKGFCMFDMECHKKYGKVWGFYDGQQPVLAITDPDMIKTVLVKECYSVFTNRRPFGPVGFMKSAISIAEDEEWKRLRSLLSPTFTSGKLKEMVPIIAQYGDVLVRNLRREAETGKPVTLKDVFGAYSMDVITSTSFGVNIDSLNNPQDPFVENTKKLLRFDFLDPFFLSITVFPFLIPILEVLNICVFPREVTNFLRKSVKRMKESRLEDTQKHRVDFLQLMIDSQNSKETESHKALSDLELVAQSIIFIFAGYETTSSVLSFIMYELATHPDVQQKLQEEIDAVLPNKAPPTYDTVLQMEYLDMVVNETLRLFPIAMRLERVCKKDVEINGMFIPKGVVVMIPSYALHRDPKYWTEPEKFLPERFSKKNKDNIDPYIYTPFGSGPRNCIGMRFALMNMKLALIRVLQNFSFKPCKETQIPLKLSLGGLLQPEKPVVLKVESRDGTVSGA
The next data set deals with Cytochrome P450 2C19 (Homo sapiens, UniProt P33261). The data set can be described thus: Cytochrome panel assay with activity outcomes. Panel member name: p450-cyp2c19 Compounds with AC50 equal or less than 10 uM are considered active. The data set is classed as functional.
Sequence of Cytochrome P450 2C19 (P33261 whole entry): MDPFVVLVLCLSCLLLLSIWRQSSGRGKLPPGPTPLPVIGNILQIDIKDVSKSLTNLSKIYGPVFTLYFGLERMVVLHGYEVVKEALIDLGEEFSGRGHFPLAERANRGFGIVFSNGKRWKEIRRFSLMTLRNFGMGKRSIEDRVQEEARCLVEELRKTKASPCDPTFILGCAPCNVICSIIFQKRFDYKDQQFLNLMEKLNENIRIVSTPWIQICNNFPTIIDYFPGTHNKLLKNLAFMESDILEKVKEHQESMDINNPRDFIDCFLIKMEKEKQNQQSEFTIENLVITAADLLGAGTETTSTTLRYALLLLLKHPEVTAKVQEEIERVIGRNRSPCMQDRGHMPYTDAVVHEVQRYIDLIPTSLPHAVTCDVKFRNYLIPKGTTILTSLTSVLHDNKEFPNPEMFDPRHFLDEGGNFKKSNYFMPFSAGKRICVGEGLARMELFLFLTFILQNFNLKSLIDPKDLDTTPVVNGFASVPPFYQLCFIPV
Data set [2] is described as follows: Luminescence Cell-Based Dose Response HTS to Identify Activators of Luciferase Translation or Activity in H4 […] Cells. [Related pubchem assays: 1829 (Project Summary), 1814 (Primary HTS)]. The data set is classed as functional.
The test system of a further data set is H4. The data set can be described thus: Luminescence Cell-Based Dose Response HTS to Identify Activators of 5'UTR Stem-Loop Driven Prion Protein mRNA Translation in H4 Neuroglioblastoma Cells. [Related pubchem assays: 1829 (Project Summary), 1814 (Primary HTS)]. The conditions noted are these: Homo sapiens. In kind it is functional.
The nature of data set [3]: Trypanosoma cruzi growth suppression in host cells – NIH3T3 host cells, beta-gal luminescence, confirmation (AID 2044).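 Further: intracellular parasites grown in NIH/3T3 mouse fibroblasts as host cells; luminescent beta-galactosidase reporter signal from transgenic T. cruzi replicating inside host cells; inhibitors lower the luminescence signal.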 In kind it is functional, cell-based.
The nature of data set [4]: NIH3T3 cell viability loss – ATP luminescence, mouse fibroblasts, counter-screen, dose response (AID 2010).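 Further: cells exposed to compound for about 90 hours before reading.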 The data set is classed as functional, cell-based. A general note: A counterscreen serves to expose hits that act by an unwanted route or on another target.
Data set [5] deals with T3, Rac GTPase-activating protein 1 (Homo sapiens, UniProt Q9H0H5).
T3 sequence (Q9H0H5 whole entry): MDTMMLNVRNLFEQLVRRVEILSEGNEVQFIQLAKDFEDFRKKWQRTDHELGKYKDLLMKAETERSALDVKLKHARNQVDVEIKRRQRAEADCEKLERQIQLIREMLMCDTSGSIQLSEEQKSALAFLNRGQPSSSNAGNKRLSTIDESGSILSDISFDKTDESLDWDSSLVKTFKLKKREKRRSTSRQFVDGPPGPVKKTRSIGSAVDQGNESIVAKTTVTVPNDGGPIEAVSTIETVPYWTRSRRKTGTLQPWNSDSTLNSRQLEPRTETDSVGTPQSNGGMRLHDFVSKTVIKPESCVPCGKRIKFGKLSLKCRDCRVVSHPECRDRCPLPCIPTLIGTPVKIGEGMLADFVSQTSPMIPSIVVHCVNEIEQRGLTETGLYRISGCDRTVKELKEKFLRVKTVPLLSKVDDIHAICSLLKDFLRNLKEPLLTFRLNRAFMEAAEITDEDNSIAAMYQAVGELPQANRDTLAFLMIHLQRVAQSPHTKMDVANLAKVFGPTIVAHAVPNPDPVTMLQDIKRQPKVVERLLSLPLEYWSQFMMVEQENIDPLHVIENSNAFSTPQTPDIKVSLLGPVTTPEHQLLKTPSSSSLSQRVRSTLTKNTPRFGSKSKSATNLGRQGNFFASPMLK
The data set can be described thus: blockers of MgcRacGAP-driven Rac1 GTP hydrolysis – biochemical, ADP Hunter fluorescence, primary and confirmatory, confirmation (AID 624330). The data set is classed as functional.

We go through 30 compounds from ChEMBL document CHEMBL1201862, “PubChem BioAssay data set” (2004).

Values joined by “and” are separate entries in the source; they are usually repeats but may differ in a detail not shown here. Equal entries are not always repeated. Active and inactive are the calls of the source.

One may read the AC50 as the concentration at which the activity in the assay is half-maximal. A word on the EC50: it is the concentration needed to bring the measured effect to its halfway point. What is called IC50 is the concentration needed to halve the response being measured.

Regarding `NCCCCCCNS(=O)(=O)c1cccc2ccccc12`, the results for the AC50 on Cytochrome P450 1A2 and at Cytochrome P450 2C9 were 25.1 µM (inconclusive) and 0.2 µM (inconclusive), respectively.

Consider `NC(=NOC(=O)Cc1ccccc1[N+](=O)[O-])c1cccnc1`, for which the concentration for a half-maximal effect (EC50) in data set [1] was > 195 µM (not active). `COc1ccc(C2CC(c3cccc(C)c3)n3nc(N)nc3N2)cc1` (configuration not stated): the AC50 with INS1 is > 260 µM (inactive). Take `c1ccc([C@H]2CNCc3ccccc32)cc1`: on Cytochrome P450 3A4, the AC50 was 15.8 µM (inconclusive). For the compound `COc1ccc(NC(=O)N2CC[C@@]3(CCCN(C(=O)c4cccc(F)c4)C3)C2)cc1`, the concentration at half-maximal activity (AC50) was 25.1 µM (inconclusive) at Cytochrome P450 1A2 and 15.8 µM (inconclusive) on Cytochrome P450 3A4. For `CSCCC(NC(=O)CCC(=O)OCC(=O)[C@@]1(O)CCC2[C@@H]3CCC4=CC(=O)C=C[C@]4(C)C3[C@@H](O)C[C@@]21C)C(=O)O` (some centres not stated), the 50% effective concentration (EC50) in data set [1] was 0.216 µM (active). Take `O=C(NCc1ccco1)C(=O)NCC(c1ccco1)N1CCOCC1` (configuration not stated): the EC50 in data set [1] is recorded as > 195 µM (not active). On to `COc1cc(/C=C2/C(=N)N3OC(C)=CC3=NC2=O)ccc1OCCOc1ccc(C)cc1`, for which the figures for the half-maximal activity concentration (AC50) at Cytochrome P450 2C19 (read-out: AC50) and at Cytochrome P450 3A4 were 4.47 µM (inconclusive) and 11.2 µM (inconclusive), respectively.

As for `C=C1C(=O)O[C@@H]2[C@@H]1CC/C(C)=C\CC[C@@]1(C)O[C@H]21`, the AC50 at Cytochrome P450 3A4 was 20 µM (inconclusive) and 12.6 µM (inconclusive). On to `CC1CCN(C2=NC(=O)/C(=C/c3ccccc3F)S2)CC1`, for which the EC50 in data set [1] is > 195 µM (not active).

Take `O=C(Cc1ccccc1)Nc1nc2ccccc2s1`: in data set [1], the EC50 was > 195 µM (not active). On to `COc1cc(OC)cc(C(=O)NCC(=O)OCc2nc3ccccc3s2)c1`, for which the EC50 in [2] was 14.6 µM (active); with H4, 0.165 µM (active). Turning to `O=C(COC(=O)/C=C/c1ccccc1[N+](=O)[O-])Nc1ccc(OCc2ccccc2)cc1`, the concentration for a half-maximal effect (EC50) in data set [2] was 4.21 µM (active); with H4 it was 40.1 µM (active). For the compound `O=S(=O)(Nc1ccc2c(c1)OCCO2)c1cccc2nsnc12`, the EC50 in data set [1] was 4.32 µM (active).

For the compound `CCOc1ccc(OCC)c(-c2c(=O)n(OCc3ccc(C(C)(C)C)cc3)c3ccccc3[n+]2[O-])c1`, on Cytochrome P450 3A4, the AC50 is 12.6 µM (inconclusive). For the compound `CC(=O)/C=C1\N(C)c2ccc(C)cc2C1(C)C`, the EC50 in data set [3] was 1.93 µM (active); in data set [4], > 60 µM (not active). For the same compound, in the data set on INS1, the AC50 was 5.32 µM (active). As for `O=C1C2CCCN2C(c2ccccc2F)N1c1ccc(Cl)cc1` (configuration not stated), the values for the AC50 on Cytochrome P450 1A2, on Cytochrome P450 3A4 and at Cytochrome P450 2C9 were 2 µM (inconclusive), 14.1 µM (inconclusive) and 39.8 µM (inconclusive), respectively.

Take `CCOC(=O)C1C(=O)OC(C)(C)C1C(C)C(=O)c1ccc(C)cc1` (configuration not stated): the EC50 in data set [1] is reported as > 195 µM (not active). For the compound `O=[N+]([O-])c1ccc2c(c1)N=C1O[C@H](c3c[nH]c4ccc(COc5ccccc5)cc34)C(O)=C1N2`, the AC50 on Cytochrome P450 2C19 (read-out: AC50) and at Cytochrome P450 3A4 was 3.16 µM (inconclusive) in each case. Consider `Fc1ccc(C(OCCN2CCN(C/C=C\c3ccccc3)CC2)c2ccc(F)cc2)cc1`, for which the values for the AC50 at Cytochrome P450 1A2 and at Cytochrome P450 3A4 were 31.6 µM (inconclusive) and 15.8 µM (inconclusive), respectively. For `CN(C)c1ccc(NC(S)=NC23CC4CC(CC(C4)C2)C3)cc1`, the 50% effective concentration (EC50) in data set [2] is 20.6 µM (active); in the data set with H4 it was 17.1 µM (active). Moreover, the AC50 with INS1 is 83.2 µM (active). Regarding `O=C(CC1C(=O)NCCN1Cc1ccc(-c2ccccc2)cc1)NC1CCC1` (configuration not stated), the AC50 with INS1 was > 260 µM (inactive). `Cc1ccc(NC(=O)NC(=O)CN2CCN(c3ccc(O)cc3)CC2)c(C)c1`: in data set [1], the concentration giving a half-maximal response (EC50) is > 195 µM (not active). For the same compound, in data set [5], the IC50 is 64.9 µM (active). For `COc1cccc(Cn2c(=O)c(CCc3ccccc3)nc3cnc(N(C)C)nc32)c1`, the AC50 at Cytochrome P450 3A4 is 2.51 µM (inconclusive).

Regarding `O=C(COc1ccc(F)cc1)Nc1cc(Cl)ccc1-n1cncn1`, in [1], the half-maximal effective concentration (EC50) is given as > 195 µM (not active). As to `Cc1c(NC(=O)C23CC4CC(CC(C)(C4)C2)C3)c(=O)n(-c2ccccc2)n1C`, the values for the half-maximal activity concentration (AC50) result at Cytochrome P450 2C19 and on Cytochrome P450 3A4 were “inconclusive” and 31.6 µM (inconclusive), respectively. Consider `CC(C)(C)C(=O)/C=C/c1ccc(Oc2ccccc2)cc1`, for which, in data set [1], the EC50 was > 195 µM (not active).

On to `O=C1C(/C=C(\O)c2ccccc2)=NCC2c3ccccc3CCN12` (configuration not stated), for which the EC50 in data set [2] was 0.491 µM (active); in the data set on H4, 8.18 µM (active). Consider `CN1N=C(C(C)(C)C)CS/C1=N/c1ccccc1`, for which, in the data set on INS1, the AC50 is > 260 µM (inactive).

With `O=[N+]([O-])c1ccc2nc(N3CCNCC3)ccc2c1` [6-NITROQUIPAZINE], the concentration at half-maximal activity (AC50) entry was “inconclusive” at Cytochrome P450 2C19 and 10 µM (inconclusive) on Cytochrome P450 3A4.
